According to the kinase profiling compilation of Christmann-Franck et al. (2016):

Columns and labels:
Experiment in all cases: radiometric filter-binding kinase assay, Kinase HotSpot
Details in all cases: compound 0.5 µM; ATP 10 µM
CDK4 CCND1 (human) = CDK4 CCND1 (human) (UniProt P24385+P11802)
EPHB2 (human) = EPHB2 (human) (UniProt P29323)
RIPK2 (human) = RIPK2 (human) (UniProt O43353)
MAP3K11 (human) = MAP3K11 (human) (UniProt Q16584)
NEK4 (human) = NEK4 (human) (UniProt P51957)
MAPK1 (human) = MAPK1 (human) (UniProt P28482)
MUSK (human) = MUSK (human) (UniProt O15146)
DAPK1 (human) = DAPK1 (human) (UniProt P53355)
PRKCB1 (human) = PRKCB1 (human) (UniProt P05771)
ROCK1 (human) = ROCK1 (human) (UniProt Q13464)
CDK5 CDK5R1 p35 (human) = CDK5 CDK5R1 p35 (human) (UniProt Q00535+Q15078)
MAPK8 (human) = MAPK8 (human) (UniProt P45983)
MLTK (human) = MLTK (human) (UniProt Q9NYL2)
MARK2 (human) = MARK2 (human) (UniProt Q7KZI7)
ROS1 (human) = ROS1 (human) (UniProt P08922)
RPS6KA4 KD2 (human) = RPS6KA4 KD2 (human) (UniProt O75676)
PRKD3 (human) = PRKD3 (human) (UniProt O94806)
CAMK2A (human) = CAMK2A (human) (UniProt Q9UQM7)
TAOK2 (human) = TAOK2 (human) (UniProt Q9UL54)
MAP3K14 (human) = MAP3K14 (human) (UniProt Q99558)
CDK9 CCNT1 (human) = CDK9 CCNT1 (human) (UniProt P50750+O60563)
VRK1 (human) = VRK1 (human) (UniProt Q99986)
CLK3 (human) = CLK3 (human) (UniProt P49761)
ALK (human) = ALK (human) (UniProt Q9UM73)
MAP3K7 TAB1 (human) = MAP3K7 TAB1 (human) (UniProt O43318+Q15750)
EPHA7 (human) = EPHA7 (human) (UniProt Q15375)
CDK7 CCNH MNAT1 (human) = CDK7 CCNH MNAT1 (human) (UniProt P50613+P51948+P51946)
GSG2 (human) = GSG2 (human) (UniProt Q8TF76)
ABL2 (human) = ABL2 (human) (UniProt P42684)
MET (human) = MET (human) (UniProt P08581)
TLK2 (human) = TLK2 (human) (UniProt Q86UE8)
AKT3 (human) = AKT3 (human) (UniProt Q9Y243)
NEK9 (human) = NEK9 (human) (UniProt Q8TD19)
MINK1 (human) = MINK1 (human) (UniProt Q8N4C8)
RPS6KA5 KD2 (human) = RPS6KA5 KD2 (human) (UniProt O75582)
HIPK3 (human) = HIPK3 (human) (UniProt Q9H422)
GSK3B (human) = GSK3B (human) (UniProt P49841)
CSF1R (human) = CSF1R (human) (UniProt P07333)
NTRK3 (human) = NTRK3 (human) (UniProt Q16288)
SRC (human) = SRC (human) (UniProt P12931)
EPHB4 (human) = EPHB4 (human) (UniProt P54760)

Sequence of TLK2 (human) (Q86UE8 whole entry, looked up): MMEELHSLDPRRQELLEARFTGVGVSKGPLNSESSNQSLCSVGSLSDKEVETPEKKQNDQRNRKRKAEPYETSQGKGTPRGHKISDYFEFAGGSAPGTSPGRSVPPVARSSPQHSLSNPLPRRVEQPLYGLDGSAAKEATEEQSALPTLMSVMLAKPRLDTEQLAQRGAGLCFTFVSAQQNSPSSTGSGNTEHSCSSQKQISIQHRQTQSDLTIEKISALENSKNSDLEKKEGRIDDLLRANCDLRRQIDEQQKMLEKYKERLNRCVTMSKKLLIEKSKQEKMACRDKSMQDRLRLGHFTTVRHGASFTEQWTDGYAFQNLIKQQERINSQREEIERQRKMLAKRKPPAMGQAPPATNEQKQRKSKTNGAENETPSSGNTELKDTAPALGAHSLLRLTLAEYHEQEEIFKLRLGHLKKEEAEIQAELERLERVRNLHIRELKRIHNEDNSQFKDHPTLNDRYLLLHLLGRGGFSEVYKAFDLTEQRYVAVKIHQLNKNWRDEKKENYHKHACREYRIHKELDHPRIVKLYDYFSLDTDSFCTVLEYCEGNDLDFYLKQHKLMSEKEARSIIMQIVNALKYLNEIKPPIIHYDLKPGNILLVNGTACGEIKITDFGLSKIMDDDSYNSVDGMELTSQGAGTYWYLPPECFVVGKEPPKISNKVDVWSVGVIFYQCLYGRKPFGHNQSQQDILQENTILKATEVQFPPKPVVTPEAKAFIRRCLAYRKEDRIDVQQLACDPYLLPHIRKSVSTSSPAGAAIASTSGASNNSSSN
Sequence of VRK1 (human) (Q99986 whole entry, looked up): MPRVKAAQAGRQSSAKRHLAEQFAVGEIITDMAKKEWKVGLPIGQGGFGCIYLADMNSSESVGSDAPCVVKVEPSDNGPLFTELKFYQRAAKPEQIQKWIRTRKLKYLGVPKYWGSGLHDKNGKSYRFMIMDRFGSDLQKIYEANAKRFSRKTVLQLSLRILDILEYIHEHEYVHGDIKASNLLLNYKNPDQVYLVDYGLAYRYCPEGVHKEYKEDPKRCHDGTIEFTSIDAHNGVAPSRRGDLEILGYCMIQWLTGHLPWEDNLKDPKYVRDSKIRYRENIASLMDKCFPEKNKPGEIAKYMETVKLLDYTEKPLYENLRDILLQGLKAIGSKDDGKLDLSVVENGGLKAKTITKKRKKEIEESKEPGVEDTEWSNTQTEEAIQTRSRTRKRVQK
Sequence of MAP3K7 TAB1 (human) (O43318 whole entry, looked up): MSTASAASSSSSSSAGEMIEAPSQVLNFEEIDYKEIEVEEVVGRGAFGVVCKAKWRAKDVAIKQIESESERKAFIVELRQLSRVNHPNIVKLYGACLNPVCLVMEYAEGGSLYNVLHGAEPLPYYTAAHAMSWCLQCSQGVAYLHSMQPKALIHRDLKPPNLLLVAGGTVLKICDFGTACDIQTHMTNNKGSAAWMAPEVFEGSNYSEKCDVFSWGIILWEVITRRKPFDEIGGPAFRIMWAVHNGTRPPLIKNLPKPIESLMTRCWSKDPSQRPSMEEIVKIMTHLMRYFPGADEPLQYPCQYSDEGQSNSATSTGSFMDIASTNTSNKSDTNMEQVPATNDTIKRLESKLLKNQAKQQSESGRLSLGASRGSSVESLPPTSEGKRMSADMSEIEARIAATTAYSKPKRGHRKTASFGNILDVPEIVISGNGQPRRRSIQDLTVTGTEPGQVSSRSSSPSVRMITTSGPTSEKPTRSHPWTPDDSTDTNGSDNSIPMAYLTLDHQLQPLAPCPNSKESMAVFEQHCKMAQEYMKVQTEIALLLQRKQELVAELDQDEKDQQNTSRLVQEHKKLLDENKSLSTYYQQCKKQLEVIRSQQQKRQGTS
Sequence of MAP3K7 TAB1 (human) (Q15750 whole entry, looked up): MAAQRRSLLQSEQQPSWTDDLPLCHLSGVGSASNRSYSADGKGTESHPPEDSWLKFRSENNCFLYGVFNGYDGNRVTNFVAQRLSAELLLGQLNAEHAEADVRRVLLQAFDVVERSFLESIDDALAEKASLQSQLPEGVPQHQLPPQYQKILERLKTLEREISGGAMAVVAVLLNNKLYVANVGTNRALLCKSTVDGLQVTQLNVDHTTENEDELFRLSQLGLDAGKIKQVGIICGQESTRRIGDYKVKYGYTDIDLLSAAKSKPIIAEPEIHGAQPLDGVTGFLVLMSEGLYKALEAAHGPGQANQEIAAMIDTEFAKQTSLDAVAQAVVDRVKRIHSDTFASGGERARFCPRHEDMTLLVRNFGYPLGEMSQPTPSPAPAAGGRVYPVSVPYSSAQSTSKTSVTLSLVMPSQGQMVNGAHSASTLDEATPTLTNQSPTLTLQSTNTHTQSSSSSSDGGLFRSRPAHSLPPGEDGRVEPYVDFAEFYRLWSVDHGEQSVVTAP
Sequence of GSG2 (human) (Q8TF76 whole entry, looked up): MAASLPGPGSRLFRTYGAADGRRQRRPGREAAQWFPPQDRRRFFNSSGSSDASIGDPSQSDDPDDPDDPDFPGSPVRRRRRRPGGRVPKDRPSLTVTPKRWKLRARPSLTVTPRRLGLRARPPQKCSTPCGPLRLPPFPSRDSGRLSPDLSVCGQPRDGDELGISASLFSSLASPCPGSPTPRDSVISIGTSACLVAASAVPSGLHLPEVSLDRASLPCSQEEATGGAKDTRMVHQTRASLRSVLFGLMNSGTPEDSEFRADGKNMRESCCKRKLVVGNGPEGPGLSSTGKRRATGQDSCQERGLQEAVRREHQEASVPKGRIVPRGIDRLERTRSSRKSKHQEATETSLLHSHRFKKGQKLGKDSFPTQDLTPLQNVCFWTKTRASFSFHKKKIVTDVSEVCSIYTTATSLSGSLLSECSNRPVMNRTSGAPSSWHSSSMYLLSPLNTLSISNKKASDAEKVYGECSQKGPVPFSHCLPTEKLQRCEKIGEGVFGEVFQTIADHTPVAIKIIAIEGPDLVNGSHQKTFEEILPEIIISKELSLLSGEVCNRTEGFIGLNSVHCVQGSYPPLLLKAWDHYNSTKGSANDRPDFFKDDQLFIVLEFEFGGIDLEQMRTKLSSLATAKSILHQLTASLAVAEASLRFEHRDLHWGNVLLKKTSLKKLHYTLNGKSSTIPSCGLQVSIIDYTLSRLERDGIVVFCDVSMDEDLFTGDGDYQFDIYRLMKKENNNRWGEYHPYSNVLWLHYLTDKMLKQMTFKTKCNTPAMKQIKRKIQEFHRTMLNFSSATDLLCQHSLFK
Sequence of ALK (human) (Q9UM73 whole entry, looked up): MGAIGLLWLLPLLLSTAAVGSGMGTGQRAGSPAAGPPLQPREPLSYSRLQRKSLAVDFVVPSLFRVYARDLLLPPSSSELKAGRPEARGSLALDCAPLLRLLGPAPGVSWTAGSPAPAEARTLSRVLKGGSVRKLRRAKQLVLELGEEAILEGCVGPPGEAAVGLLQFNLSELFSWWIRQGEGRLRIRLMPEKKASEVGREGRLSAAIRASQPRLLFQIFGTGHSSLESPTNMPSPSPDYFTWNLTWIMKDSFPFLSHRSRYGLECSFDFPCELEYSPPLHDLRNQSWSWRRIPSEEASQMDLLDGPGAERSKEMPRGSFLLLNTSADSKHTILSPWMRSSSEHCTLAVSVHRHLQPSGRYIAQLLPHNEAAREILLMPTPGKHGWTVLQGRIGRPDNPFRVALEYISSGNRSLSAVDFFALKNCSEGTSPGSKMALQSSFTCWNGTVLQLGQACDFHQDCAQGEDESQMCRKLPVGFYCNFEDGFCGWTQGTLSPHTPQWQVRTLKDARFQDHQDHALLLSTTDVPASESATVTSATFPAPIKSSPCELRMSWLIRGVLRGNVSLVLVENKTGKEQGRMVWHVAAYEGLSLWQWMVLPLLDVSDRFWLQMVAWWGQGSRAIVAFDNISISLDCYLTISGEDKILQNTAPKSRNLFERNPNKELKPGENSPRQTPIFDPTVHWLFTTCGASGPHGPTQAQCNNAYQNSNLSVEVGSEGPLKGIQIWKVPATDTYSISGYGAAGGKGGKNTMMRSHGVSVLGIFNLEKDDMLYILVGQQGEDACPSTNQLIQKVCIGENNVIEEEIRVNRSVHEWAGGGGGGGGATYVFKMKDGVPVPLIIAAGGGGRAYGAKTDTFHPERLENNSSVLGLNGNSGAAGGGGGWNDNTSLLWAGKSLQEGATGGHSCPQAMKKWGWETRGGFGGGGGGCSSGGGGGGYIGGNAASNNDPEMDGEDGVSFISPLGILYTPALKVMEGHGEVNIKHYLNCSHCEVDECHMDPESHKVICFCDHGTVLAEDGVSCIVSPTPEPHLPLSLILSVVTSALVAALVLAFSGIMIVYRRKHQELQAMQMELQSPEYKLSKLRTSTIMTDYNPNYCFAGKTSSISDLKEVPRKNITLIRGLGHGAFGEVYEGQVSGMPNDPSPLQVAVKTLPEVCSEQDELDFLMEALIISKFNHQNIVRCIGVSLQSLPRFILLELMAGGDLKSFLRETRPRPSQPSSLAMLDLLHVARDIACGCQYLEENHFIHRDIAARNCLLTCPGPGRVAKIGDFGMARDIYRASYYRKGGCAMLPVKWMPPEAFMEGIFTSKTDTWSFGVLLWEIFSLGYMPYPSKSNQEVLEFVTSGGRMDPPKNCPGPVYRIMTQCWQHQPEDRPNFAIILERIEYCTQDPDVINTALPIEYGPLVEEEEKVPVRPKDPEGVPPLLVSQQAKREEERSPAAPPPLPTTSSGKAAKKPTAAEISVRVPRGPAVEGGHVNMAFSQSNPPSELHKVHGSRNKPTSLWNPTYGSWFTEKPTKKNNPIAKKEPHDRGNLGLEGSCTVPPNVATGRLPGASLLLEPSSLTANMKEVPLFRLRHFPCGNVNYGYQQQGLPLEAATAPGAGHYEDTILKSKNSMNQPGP
Sequence of MAPK1 (human) (P28482 whole entry, looked up): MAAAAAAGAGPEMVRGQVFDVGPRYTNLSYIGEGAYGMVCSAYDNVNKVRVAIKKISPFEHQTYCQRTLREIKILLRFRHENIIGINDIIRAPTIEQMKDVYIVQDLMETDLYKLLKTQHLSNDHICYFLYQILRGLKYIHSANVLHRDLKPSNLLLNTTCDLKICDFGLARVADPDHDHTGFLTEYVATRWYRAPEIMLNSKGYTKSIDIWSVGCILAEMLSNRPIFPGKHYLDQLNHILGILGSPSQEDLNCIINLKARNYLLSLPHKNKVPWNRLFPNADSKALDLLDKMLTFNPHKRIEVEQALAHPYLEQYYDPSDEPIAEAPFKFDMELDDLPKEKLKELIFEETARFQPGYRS

CNC(=O)c1cc(Oc2ccc(NC(=O)Nc3ccc(Cl)c(C(F)(F)F)c3)cc2)ccn1
residual activity (CDK4 CCND1 (human)): 96.2%
residual activity (EPHB2 (human)): 93.2%
residual activity (RIPK2 (human)): 86.2%
residual activity (MAP3K11 (human)): 98.3%
residual activity (NEK4 (human)): 99.5%
residual activity (MAPK1 (human)): 101%
residual activity (MUSK (human)): 101%
residual activity (DAPK1 (human)): 101%
residual activity (PRKCB1 (human)): 95.1%
residual activity (ROCK1 (human)): 102%
residual activity (CDK5 CDK5R1 p35 (human)): 99.9%
residual activity (MAPK8 (human)): 92.8%
residual activity (MLTK (human)): 16.7%
residual activity (MARK2 (human)): 94.9%
residual activity (ROS1 (human)): 95.7%
residual activity (RPS6KA4 KD2 (human)): 97.7%
residual activity (PRKD3 (human)): 94%
residual activity (CAMK2A (human)): 95.3%
residual activity (TAOK2 (human)): 36.9%
residual activity (MAP3K14 (human)): 96.4%
residual activity (CDK9 CCNT1 (human)): 98.3%
residual activity (VRK1 (human)): 99.3%
residual activity (CLK3 (human)): 99.3%
residual activity (ALK (human)): 97.3%
residual activity (MAP3K7 TAB1 (human)): 101%
residual activity (EPHA7 (human)): 80.7%
residual activity (CDK7 CCNH MNAT1 (human)): 102%
residual activity (GSG2 (human)): 99.3%
residual activity (ABL2 (human)): 99.4%
residual activity (MET (human)): 105%
residual activity (TLK2 (human)): 84.8%
residual activity (AKT3 (human)): 94.2%
residual activity (NEK9 (human)): 95.4%
residual activity (MINK1 (human)): 108%
residual activity (RPS6KA5 KD2 (human)): 102%
residual activity (HIPK3 (human)): 85.7%
residual activity (GSK3B (human)): 101%

CCN(CC)CCNC(=O)c1c(C)[nH]c(/C=C2\C(=O)Nc3ccc(F)cc32)c1C
residual activity (CDK4 CCND1 (human)): 81%
residual activity (EPHB2 (human)): 72.1%
residual activity (RIPK2 (human)): 104%
residual activity (MAP3K11 (human)): 68.4%
residual activity (NEK4 (human)): 94.1%
residual activity (MAPK1 (human)): 98.5%
residual activity (MUSK (human)): 51.3%
residual activity (DAPK1 (human)): 66.9%
residual activity (PRKCB1 (human)): 90.2%
residual activity (ROCK1 (human)): 99.7%
residual activity (MAPK8 (human)): 91.8%
residual activity (CSF1R (human)): 7.28%
residual activity (ROS1 (human)): 71.6%
residual activity (RPS6KA4 KD2 (human)): 50.8%
residual activity (PRKD3 (human)): 16.6%
residual activity (CAMK2A (human)): 14.5%
residual activity (TAOK2 (human)): 90.3%
residual activity (MAP3K14 (human)): 127%
residual activity (CDK9 CCNT1 (human)): 88.7%
residual activity (VRK1 (human)): 97.3%
residual activity (CLK3 (human)): 105%
residual activity (ALK (human)): 16.6%
residual activity (MAP3K7 TAB1 (human)): 18.6%
residual activity (EPHA7 (human)): 50.8%
residual activity (CDK7 CCNH MNAT1 (human)): 73.4%
residual activity (GSG2 (human)): 53.2%
residual activity (ABL2 (human)): 61.8%
residual activity (MET (human)): 91%
residual activity (TLK2 (human)): 63.3%
residual activity (AKT3 (human)): 71.7%
residual activity (NEK9 (human)): 100%
residual activity (MINK1 (human)): 10.5%
residual activity (RPS6KA5 KD2 (human)): 60.1%
residual activity (HIPK3 (human)): 47.3%
residual activity (GSK3B (human)): 95.8%

Cc1ccc(Nc2nccc(N(C)c3ccc4c(C)n(C)nc4c3)n2)cc1S(N)(=O)=O
residual activity (CDK4 CCND1 (human)): 88.4%
residual activity (EPHB2 (human)): 91.9%
residual activity (RIPK2 (human)): 68.2%
residual activity (NEK4 (human)): 91.1%
residual activity (MAPK1 (human)): 103%
residual activity (MUSK (human)): 95.1%
residual activity (DAPK1 (human)): 105%
residual activity (PRKCB1 (human)): 91%
residual activity (ROCK1 (human)): 100%
residual activity (CDK5 CDK5R1 p35 (human)): 99.3%
residual activity (MLTK (human)): 96.9%
residual activity (MARK2 (human)): 111%
residual activity (NTRK3 (human)): 87.8%
residual activity (ROS1 (human)): 17%
residual activity (RPS6KA4 KD2 (human)): 102%
residual activity (PRKD3 (human)): 90%
residual activity (CAMK2A (human)): 95.6%
residual activity (TAOK2 (human)): 26.8%
residual activity (MAP3K14 (human)): 104%
residual activity (CDK9 CCNT1 (human)): 91.5%
residual activity (VRK1 (human)): 100%
residual activity (CLK3 (human)): 107%
residual activity (ALK (human)): 85.3%
residual activity (SRC (human)): 70.7%
residual activity (MAP3K7 TAB1 (human)): 90.6%
residual activity (EPHA7 (human)): 94.1%
residual activity (CDK7 CCNH MNAT1 (human)): 103%
residual activity (GSG2 (human)): 90.4%
residual activity (ABL2 (human)): 38.5%
residual activity (TLK2 (human)): 85.6%
residual activity (AKT3 (human)): 93.3%
residual activity (NEK9 (human)): 95.8%
residual activity (MINK1 (human)): 73.7%
residual activity (RPS6KA5 KD2 (human)): 101%
residual activity (HIPK3 (human)): 103%
residual activity (EPHB4 (human)): 93.8%
